Experimental findings from PMC6072243 (ACS Omega, 2018) are described below.

For one data set, the target named is JNK1 (Homo sapiens, UniProt P45983). The data set is described as follows: Radiometric assay, Reaction Biology corporation. The class given is biochemical.
A further data set has as its target CYP450 2C19 (Homo sapiens, UniProt P33261). Put plainly: CYP450 inhibition. Conditions: % inhibition at 10 μM. The class given is in vitro ADME.
Data set [1] is described as follows: In vitro metabolic stability in human liver microsomes. The class given is in vitro ADME. The settings on record: after 4 h incubation.
Another data set has as its target CYP450 2C9 (Homo sapiens, UniProt P11712). The data set is described as follows: CYP450 inhibition. The class given is in vitro ADME. The settings on record: % inhibition at 10 μM.
Another data set concerns the target hERG channels (Homo sapiens, UniProt Q12809). The data set is described as follows: hERG inhibition.
The target in the next data set is JNK2 (Homo sapiens, UniProt P45984). The data set is described as follows: Radiometric assay, Reaction Biology corporation. The class given is biochemical.
The test system of another data set is CYP450 1A9. The data set is described as follows: CYP450 inhibition. The class given is in vitro ADME. The settings on record: % inhibition at 10 μM.
The target in a further data set is JNK3 (Homo sapiens, UniProt P53779). Put plainly: JNK3 enzyme-linked immunosorbent assay. The class given is biochemical.
For a further data set, the target named is p38α MAPK (Homo sapiens, UniProt Q16539). Put plainly: p38α MAPK enzyme-linked immunosorbent assay. It counts as biochemical. Conditions: for inhibition at 10 µM: read-out: Percent inhibition of p38α MAPK at indicated concentration.
For another data set, the target named is CYP450 2D6 (Homo sapiens, UniProt P10635). Put plainly: CYP450 inhibition. The settings on record: % inhibition at 10 μM. The class given is in vitro ADME.
The next data set addresses CYP450 3A4 (Homo sapiens, UniProt P08684). The data set is described as follows: CYP450 inhibition. It counts as in vitro ADME. The settings on record: % inhibition at 10 μM.
Data set [2] relates to panel of 45 diverse kinases. The data set is described as follows: ExpresS Diversity Kinase Panel, whole panel. It counts as biochemical, human. The settings on record: panel of 45 kinases, 10 μM, including JNK1.
Setting [3] is: 2-methylaminothiazole versus 2-sulfanylimidazole (compound 5).

JNK3, sequence (P53779 whole entry): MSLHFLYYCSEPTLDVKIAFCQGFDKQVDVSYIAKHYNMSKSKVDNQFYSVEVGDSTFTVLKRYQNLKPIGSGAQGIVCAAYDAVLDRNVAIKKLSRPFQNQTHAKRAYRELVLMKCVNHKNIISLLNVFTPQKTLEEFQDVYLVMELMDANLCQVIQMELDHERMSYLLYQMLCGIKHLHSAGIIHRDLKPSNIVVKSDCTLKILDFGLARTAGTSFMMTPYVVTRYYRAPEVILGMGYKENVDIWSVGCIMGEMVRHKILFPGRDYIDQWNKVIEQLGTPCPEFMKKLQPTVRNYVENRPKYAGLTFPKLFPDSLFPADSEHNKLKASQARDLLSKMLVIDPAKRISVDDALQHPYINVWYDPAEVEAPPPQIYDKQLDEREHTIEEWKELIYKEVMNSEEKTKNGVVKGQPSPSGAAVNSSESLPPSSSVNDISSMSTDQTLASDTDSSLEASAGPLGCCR
p38α MAPK, sequence (Q16539 whole entry): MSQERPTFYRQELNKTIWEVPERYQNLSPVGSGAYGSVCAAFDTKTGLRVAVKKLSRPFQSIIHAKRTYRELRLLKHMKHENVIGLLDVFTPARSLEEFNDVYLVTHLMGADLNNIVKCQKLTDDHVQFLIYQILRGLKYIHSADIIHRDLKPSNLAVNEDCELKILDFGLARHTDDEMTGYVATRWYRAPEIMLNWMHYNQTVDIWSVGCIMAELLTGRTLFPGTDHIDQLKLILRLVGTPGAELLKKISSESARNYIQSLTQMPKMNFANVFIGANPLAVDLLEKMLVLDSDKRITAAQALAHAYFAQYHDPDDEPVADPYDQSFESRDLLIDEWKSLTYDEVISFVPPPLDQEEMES
hERG channels, sequence (Q12809 whole entry): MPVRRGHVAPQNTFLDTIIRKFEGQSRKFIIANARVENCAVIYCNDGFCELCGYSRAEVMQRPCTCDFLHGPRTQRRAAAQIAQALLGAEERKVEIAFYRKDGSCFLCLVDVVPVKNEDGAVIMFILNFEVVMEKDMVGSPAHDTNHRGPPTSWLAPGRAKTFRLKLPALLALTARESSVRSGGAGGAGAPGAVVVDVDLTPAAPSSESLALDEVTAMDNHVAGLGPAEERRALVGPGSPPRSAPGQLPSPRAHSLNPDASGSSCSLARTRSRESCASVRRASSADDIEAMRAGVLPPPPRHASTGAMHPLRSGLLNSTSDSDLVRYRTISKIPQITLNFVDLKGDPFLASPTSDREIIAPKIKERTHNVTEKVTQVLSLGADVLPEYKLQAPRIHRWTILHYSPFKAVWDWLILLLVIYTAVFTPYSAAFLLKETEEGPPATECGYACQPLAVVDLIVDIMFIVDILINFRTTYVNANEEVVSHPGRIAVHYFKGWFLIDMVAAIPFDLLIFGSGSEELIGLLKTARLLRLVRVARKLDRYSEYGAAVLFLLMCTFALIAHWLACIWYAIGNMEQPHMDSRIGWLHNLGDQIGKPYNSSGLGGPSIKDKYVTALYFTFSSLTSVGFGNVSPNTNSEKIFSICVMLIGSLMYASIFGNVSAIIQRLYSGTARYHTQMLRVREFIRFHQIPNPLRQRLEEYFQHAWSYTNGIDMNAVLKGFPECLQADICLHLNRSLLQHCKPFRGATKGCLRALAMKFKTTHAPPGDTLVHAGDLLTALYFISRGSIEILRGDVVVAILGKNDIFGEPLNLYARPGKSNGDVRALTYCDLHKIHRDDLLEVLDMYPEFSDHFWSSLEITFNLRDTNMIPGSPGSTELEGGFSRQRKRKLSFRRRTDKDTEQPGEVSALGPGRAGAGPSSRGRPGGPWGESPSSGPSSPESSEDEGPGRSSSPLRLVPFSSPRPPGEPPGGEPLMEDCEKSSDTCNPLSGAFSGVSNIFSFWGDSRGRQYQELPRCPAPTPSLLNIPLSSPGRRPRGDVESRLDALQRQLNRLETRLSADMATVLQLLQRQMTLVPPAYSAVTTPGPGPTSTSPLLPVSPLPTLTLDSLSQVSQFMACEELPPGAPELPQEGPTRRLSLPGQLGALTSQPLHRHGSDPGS
CYP450 2D6, sequence (P10635 whole entry): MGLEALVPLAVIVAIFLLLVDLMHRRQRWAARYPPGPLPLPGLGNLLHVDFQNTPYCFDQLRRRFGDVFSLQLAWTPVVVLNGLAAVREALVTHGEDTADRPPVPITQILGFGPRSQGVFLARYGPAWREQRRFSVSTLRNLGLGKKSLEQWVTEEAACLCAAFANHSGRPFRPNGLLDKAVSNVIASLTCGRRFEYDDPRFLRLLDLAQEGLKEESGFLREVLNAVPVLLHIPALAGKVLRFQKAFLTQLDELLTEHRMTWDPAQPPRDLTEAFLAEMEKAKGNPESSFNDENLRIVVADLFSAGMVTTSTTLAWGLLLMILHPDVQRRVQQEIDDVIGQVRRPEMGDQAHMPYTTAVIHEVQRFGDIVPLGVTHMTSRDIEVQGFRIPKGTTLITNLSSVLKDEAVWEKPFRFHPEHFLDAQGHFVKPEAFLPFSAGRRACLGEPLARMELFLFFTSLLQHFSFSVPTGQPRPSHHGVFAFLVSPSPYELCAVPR
CYP450 2C19, sequence (P33261 whole entry): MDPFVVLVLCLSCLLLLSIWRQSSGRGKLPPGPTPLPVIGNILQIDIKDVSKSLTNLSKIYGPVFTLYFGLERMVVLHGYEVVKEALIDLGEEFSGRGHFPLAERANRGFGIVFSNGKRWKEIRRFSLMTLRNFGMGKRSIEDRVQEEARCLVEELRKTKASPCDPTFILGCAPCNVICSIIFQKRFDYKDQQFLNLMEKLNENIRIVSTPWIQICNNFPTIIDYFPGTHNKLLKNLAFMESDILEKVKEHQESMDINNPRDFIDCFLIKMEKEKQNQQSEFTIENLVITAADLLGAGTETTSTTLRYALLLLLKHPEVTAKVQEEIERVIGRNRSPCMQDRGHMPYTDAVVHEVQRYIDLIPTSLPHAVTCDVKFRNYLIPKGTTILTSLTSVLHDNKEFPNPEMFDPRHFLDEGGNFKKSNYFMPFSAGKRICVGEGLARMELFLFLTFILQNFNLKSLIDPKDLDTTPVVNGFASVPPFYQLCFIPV
CYP450 2C9, sequence (P11712 whole entry): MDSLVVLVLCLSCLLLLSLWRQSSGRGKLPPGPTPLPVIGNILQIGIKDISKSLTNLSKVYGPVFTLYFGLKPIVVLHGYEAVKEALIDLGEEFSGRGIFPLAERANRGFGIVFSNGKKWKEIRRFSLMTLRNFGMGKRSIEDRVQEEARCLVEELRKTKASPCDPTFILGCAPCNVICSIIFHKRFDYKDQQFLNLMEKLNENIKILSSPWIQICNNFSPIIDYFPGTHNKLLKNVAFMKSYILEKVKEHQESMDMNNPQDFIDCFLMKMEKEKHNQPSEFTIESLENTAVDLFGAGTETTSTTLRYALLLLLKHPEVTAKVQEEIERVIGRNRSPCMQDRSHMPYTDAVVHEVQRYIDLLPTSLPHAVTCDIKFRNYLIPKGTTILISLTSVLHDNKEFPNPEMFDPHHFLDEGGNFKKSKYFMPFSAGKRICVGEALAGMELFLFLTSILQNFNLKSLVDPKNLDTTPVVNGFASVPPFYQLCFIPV
CYP450 3A4, sequence (P08684 whole entry): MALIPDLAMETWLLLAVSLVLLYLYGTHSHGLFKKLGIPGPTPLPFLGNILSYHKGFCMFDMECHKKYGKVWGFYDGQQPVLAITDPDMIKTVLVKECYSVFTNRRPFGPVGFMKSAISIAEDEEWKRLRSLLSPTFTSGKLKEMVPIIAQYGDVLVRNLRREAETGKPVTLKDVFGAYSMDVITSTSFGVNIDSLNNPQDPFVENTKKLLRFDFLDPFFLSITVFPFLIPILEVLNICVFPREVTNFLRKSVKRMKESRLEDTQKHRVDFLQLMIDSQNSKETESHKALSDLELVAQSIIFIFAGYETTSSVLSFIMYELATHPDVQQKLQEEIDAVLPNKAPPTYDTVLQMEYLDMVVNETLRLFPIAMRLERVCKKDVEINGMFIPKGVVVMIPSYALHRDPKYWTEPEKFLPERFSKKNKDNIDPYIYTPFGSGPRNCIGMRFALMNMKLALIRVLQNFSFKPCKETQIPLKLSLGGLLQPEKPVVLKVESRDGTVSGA
JNK2, sequence (P45984 whole entry): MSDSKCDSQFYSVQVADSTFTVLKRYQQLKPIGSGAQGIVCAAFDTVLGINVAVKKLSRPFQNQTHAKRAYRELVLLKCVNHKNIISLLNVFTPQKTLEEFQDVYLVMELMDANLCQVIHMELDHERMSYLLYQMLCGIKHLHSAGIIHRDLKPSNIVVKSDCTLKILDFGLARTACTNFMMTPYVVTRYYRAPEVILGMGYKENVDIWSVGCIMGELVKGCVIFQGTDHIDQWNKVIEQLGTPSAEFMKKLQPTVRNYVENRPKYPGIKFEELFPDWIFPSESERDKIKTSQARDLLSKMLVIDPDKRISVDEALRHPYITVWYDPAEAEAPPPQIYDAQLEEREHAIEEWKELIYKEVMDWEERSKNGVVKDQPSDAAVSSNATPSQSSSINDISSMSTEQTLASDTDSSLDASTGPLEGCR
JNK1, sequence (P45983 whole entry): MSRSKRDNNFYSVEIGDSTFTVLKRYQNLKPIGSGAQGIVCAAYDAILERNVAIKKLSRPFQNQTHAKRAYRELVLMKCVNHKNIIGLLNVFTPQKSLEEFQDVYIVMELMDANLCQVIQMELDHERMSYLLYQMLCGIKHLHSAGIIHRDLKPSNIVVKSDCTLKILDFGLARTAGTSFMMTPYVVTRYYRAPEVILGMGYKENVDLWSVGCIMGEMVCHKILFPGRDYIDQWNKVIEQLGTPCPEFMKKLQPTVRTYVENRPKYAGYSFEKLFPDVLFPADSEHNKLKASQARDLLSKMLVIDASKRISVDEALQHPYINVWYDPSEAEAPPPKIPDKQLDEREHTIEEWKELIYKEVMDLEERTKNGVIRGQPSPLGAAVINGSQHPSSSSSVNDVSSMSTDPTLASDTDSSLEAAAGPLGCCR

In the case of `CSc1nc(C)c(-c2ccnc(Nc3ccc(N4CCOCC4)cc3)c2)[nH]1` [Compound 44, 4-(4-Methyl-2-(methylthio)-1H-imidazol-5-yl)-N-(4-morpholinophenyl)pyridin-2-amine], the IC50 against JNK1 was 119 nM; against hERG channels it was above 10000 nM; against JNK2, 468 nM; on JNK3, 363 ± 34 nM; at p38α MAPK, above 10000 nM. Further, the “CYP450 inhibition 2C19” value on CYP450 2C19 is reported as 35.6%. The “unmodified compound still present” value in data set [1] is “approximately 80%”. In addition, the “CYP450 inhibition 2C9” value at CYP450 2C9 was 53.9%. Also, the “hERG inhibition [% inhibition at 10 μM]” value at hERG channels (10 μM) stood at 38.8%. Also, the “CYP450 inhibition 1A9” value with CYP450 1A9 was determined as 51.5%. Moreover, the “fold increase in the inhibitory potency on JNK3 over analogue 38” value at JNK3 amounted to 2 fold. The inhibition at 10 µM on p38α MAPK was 48%. The “CYP450 inhibition 2D6” value at CYP450 2D6 is on record as 19.0%. The “CYP450 inhibition 3A4” value on CYP450 3A4 was found to be 75.1%. In [2], the “number of kinases inhibited more than 50%” value is 10.

As to `CSc1nc(C)c(-c2ccnc(N[C@H]3CC[C@H](NC(=O)C4CCCCC4)CC3)c2)[nH]1` [Compound 48k, N-(trans-4-((4-(4-Methyl-2-(methylthio)-1H-imidazol-5-yl)pyridin-2-yl)amino)cyclohexyl)cyclohexanecarboxamide], the 50% inhibitory concentration (IC50) on JNK3 was determined as 2230 nM. At p38α MAPK, the IC50 is above 10000 nM and the inhibition at 10 µM turned out to be 10%.

`CSc1nc(C)c(-c2ccnc(Nc3ccc(N)cc3)c2)[nH]1` [Compound 48m, N1-(4-(4-Methyl-2-(methylthio)-1H-imidazol-5-yl)pyridin-2-yl)benzene-1,4-diamine]: the IC50 against JNK3 is 353 ± 58 nM; against p38α MAPK, above 10000 nM. Moreover, on p38α MAPK, the inhibition at 10 µM worked out at 38%.

At JNK3, `CSc1nc(C)c(-c2ccnc(Nc3ccc(NC(C)=O)cc3)c2)[nH]1` [Compound 48n, N-(4-((4-(4-Methyl-2-(methylthio)-1H-imidazol-5-yl)pyridin-2-yl)amino)phenyl)acetamide] gave an IC50 of 415 ± 40 nM. For the same compound, at p38α MAPK, the IC50 was above 10000 nM and the inhibition at 10 µM worked out at 32%.

In the case of `CSc1nc(C)c(-c2ccnc(Nc3ccc(NC(=O)c4ccccc4)cc3)c2)[nH]1` [Compound 48o, N-(4-((4-(4-Methyl-2-(methylthio)-1H-imidazol-5-yl)pyridin-2-yl)amino)phenyl)benzamide], the IC50 was 432 ± 37 nM on JNK3 and above 10000 nM against p38α MAPK. The inhibition at 10 µM at p38α MAPK turned out to be 33%.

Consider `CSc1nc(C)c(-c2ccnc(Nc3ccc(NC(=O)C4CCCCC4)cc3)c2)[nH]1` [Compound 48p, N-(4-((4-(4-Methyl-2-(methylthio)-1H-imidazol-5-yl)pyridin-2-yl)amino)phenyl)cyclohexanecarboxamide], for which the IC50 at JNK3 was 1540 nM. For the same compound, on p38α MAPK, the IC50 is above 10000 nM and the inhibition at 10 µM worked out at 27%.

`CSc1nc(C)c(-c2ccnc(Nc3ccc(NC(=O)C(C)(C)C)cc3)c2)[nH]1` [Compound 48q, N-(4-((4-(4-Methyl-2-(methylthio)-1H-imidazol-5-yl)pyridin-2-yl)amino)phenyl)pivalamide]: the IC50 against JNK3 worked out at 2370 nM. Further, at p38α MAPK, the IC50 is above 10000 nM and the inhibition at 10 µM is 15%.

At JNK3, `CSc1nc(-c2ccnc(Nc3ccc(N4CCOCC4)cc3)c2)c(C)n1C` [Compound 50, 4-(1,5-Dimethyl-2-(methylthio)-1H-imidazol-4-yl)-N-(4-morpholinophenyl)pyridin-2-amine] came in with an IC50 of 1280 nM. At p38α MAPK, the concentration for half-maximal inhibition (IC50) is above 10000 nM and the inhibition at 10 µM amounted to 37%.

Turning to `CSc1nc(C)c(-c2ccnc(Nc3ccc(N4CCOCC4)cc3)c2)n1C` [Compound 57, 4-(1,4-Dimethyl-2-(methylthio)-1H-imidazol-5-yl)-N-(4-morpholinophenyl)pyridin-2-amine], the IC50 on JNK3 was 2510 nM; on p38α MAPK, above 10000 nM. For the same compound, the inhibition at 10 µM on p38α MAPK came out at 10%.

Consider `CCn1c(SC)nc(C)c1-c1ccnc(Nc2ccc(N3CCOCC3)cc2)c1` [Compound 58, 4-(1-Ethyl-4-methyl-2-(methylthio)-1H-imidazol-5-yl)-N-(4-morpholinophenyl)pyridin-2-amine], for which it took 2090 nM to reach half-maximal inhibition against JNK3 (IC50). On p38α MAPK, the IC50 was above 10000 nM and the inhibition at 10 µM is 21%.

As to `CSc1nc(C)c(-c2ccnc(Nc3ccc(N4CCOCC4)cc3)c2)n1C1CC1` [Compound 59, 4-(1-Cyclopropyl-4-methyl-2-(methylthio)-1H-imidazol-5-yl)-N-(4-morpholinophenyl)pyridin-2-amine], on JNK3, half-maximal inhibition (IC50) was put at 6510 nM and the “fold less active on JNK3 compared to N-methyl analogue 57” value is around 3 fold. On p38α MAPK, the IC50 is above 10000 nM and the inhibition at 10 µM turned out to be 40%.

On to `Fc1ccc(-n2cncc2-c2ccnc(Nc3ccc(N4CCOCC4)cc3)c2)cc1` [Compound 66, 4-(1-(4-Fluorophenyl)-1H-imidazol-5-yl)-N-(4-morpholinophenyl)pyridin-2-amine], for which the half-maximal inhibitory concentration (IC50) on JNK3 was found to be 276 ± 10 nM; at p38α MAPK, 323 ± 14 nM.

Turning to `Cn1cncc1-c1ccnc(Nc2ccc(N3CCOCC3)cc2)c1` [Compound 67, 4-(1-Methyl-1H-imidazol-5-yl)-N-(4-morpholinophenyl)pyridin-2-amine], the IC50 against JNK3 was determined as 714 ± 21 nM. Also, on p38α MAPK, the IC50 was above 10000 nM and the inhibition at 10 µM was 32%.

Turning to `Cn1ccnc1-c1ccnc(Nc2ccc(N3CCOCC3)cc2)c1` [Compound 71, 4-(1-Methyl-1H-imidazol-2-yl)-N-(4-morpholinophenyl)pyridin-2-amine], the IC50 at JNK3 and at p38α MAPK was above 10000 nM in each case. Moreover, the inhibition at 10 µM at JNK3 (read-out: Percent inhibition of JNK3 at indicated concentration) is 42%; on p38α MAPK it was 15%.

For the compound `CNc1nc(-c2ccc(F)cc2)c(-c2ccnc(Nc3ccc(N4CCOCC4)cc3)c2)s1` [Compound 75, 4-(4-Fluorophenyl)-N-methyl-5-(2-((4-morpholinophenyl)amino)pyridin-4-yl)thiazol-2-amine], the IC50 at JNK3 came to 15 ± 3 nM; on p38α MAPK, 2 nM. For the same compound, the “fold increase in inhibitory activity for JNK3” value on JNK3 (setting [3]) worked out at 2.5 fold. Also, on p38α MAPK (setting [3]), the “fold increase in inhibitory activity for p38α MAPK” value came out at 8 fold.

As to `CNc1nc(-c2ccnc(Nc3ccc(N4CCOCC4)cc3)c2)c(C)s1` [Compound 78, N,5-Dimethyl-4-(2-((4-morpholinophenyl)amino)pyridin-4-yl)thiazol-2-amine], the IC50 against JNK3 was 2500 nM; against p38α MAPK, above 10000 nM. In addition, the inhibition at 10 µM on p38α MAPK was 9%.
